Experimental findings from publication PMC5696480, “Azole sensitivity in Leptosphaeria pathogens of oilseed rape: the role of lanosterol 14α-demethylase” (Scientific Reports, 2017) are described below.

The structures appear in SMILES notation.

Holding throughout (test): growth inhibition of complemented yeast YUG37::LbCYP51B, absorbance at […] nm
Format in all cases: cell-based, Plenodomus biglobosus (Leptosphaeria biglobosa)
Holding throughout (conditions): whole-cell growth; SD GAL + RAF with doxycycline (native CYP51 repressed), 30 °C, 6 days; SD of two biological replicates

Assay [1] relates to T1, LbCYP51B.
T1 construct: gene CYP51B; protein identical in all 8 isolates; gene 1642 bp with one 58 bp intron

The test system of assay [2] is T1, LbCYP51B. The source holds these as a separate data set.
Assay [3] deals with T1, LbCYP51B. The source holds these as a separate data set.

For `C[Si](Cn1cncn1)(c1ccc(F)cc1)c1ccc(F)cc1` [flusilazole], in assay [1], the Flusilazole was 0.032 (0.0056) µg ml^−1.

Turning to `OC(Cc1ccccc1Cl)(Cn1cncn1)C1(Cl)CC1` (stereo not drawn) [prothioconazole-desthio], the Prothioconazole-desthio in assay [2] was 0.0004 (0.0002) µg ml^−1. Take `CC(C)(C)C(O)(CCc1ccc(Cl)cc1)Cn1cncn1` (stereo not drawn) [tebuconazole]: in assay [3], the Tebuconazole is reported as 0.0062 (0.0005) µg ml^−1.
